# Test results taken from patent US8865731B2, “Inhibitor of analgesic tolerance” (Kyowa Hakko Kirin Co., Ltd., priority 2008, dated 2014).
# Tests used:
# Male ddY mice [1] = assay: Suppressing activity on oxycodone analgesic tolerance (hot plate method, response latency); settings: for Latency (sec) Pre value (before drug administration on last day) / ΔChange (Latency at each time point − Pre value) 0.5 h / ΔChange (Latency at each time point − Pre value) 1 h / ΔChange (Latency at each time point − Pre value) 2 h: Table 6; for Latency (sec) Pre value (before drug administration on last day): day 4; for ΔChange (Latency at each time point − Pre value) 0.5 h: day 4, 0.5 h; for ΔChange (Latency at each time point − Pre value) 1 h: day 4, 1 h; for ΔChange (Latency at each time point − Pre value) 2 h: day 4, 2 h
# Male ddY mice [2] = assay: Suppressing activity on morphine-induced constipation (number of fecal pellets); assay type: in vivo; settings: for number of fecal pellets: FIG. 2
# Protocol: Food and water were provided ad libitum. At the time of collection of fecal pellets, food and water were not provided.
# Morphine was dissolved in physiological saline at a concentration of 0.3 mg/mL and subcutaneously administered at a dose of 3 mg/kg.
# On the day of the test, the tails of the mice were numbered for identification, and the body weight of each mouse was measured. On the basis of the measured body weight, 0.5% MC or Compound (IA) was orally administered. At 30 minutes after administration of 0.5% MC or Compound (IA), physiological saline or morphine was subcutaneously administered, and collection of fecal pellets was started. The fecal pellets were collected at 3 hours after administration of morphine. The amount of feces was evaluated by counting the number of the fecal pellets.
# adenosine A2A receptor = settings: known from the literature (Eur. J. Pharmacol., 1994, 267(3), 335 and others); cited from earlier work
# Male ddY mice [3] = assay: Suppressing activity on morphine analgesic tolerance (hot plate method, response latency); assay type: in vivo; settings: for ΔChange (Latency at each time point − Pre value) 0.5 h / ΔChange (Latency at each time point − Pre value) 1 h / ΔChange (Latency at each time point − Pre value) 2 h: single morphine administration group: morphine 6 mg/kg s.c. only on day 7
# Male ddY mice [4] = assay: as above; assay type: in vivo; settings: for ΔChange (Latency at each time point − Pre value) 0.5 h / ΔChange (Latency at each time point − Pre value) 1 h / ΔChange (Latency at each time point − Pre value) 2 h: Table 3; for ΔChange (Latency at each time point − Pre value) 0.5 h: day 7, 0.5 h; for ΔChange (Latency at each time point − Pre value) 1 h: day 7, 1 h; for ΔChange (Latency at each time point − Pre value) 2 h: day 7, 2 h; for development of analgesic tolerance (response latency) / effect on the response latency: Test Example 4; for development of analgesic tolerance (response latency): compound 10 mg/kg p.o. 30 min before each morphine 6 mg/kg s.c.
# Protocol: (§1) Food and water were provided ad libitum.
# (§2) Morphine was dissolved in physiological saline at a concentration of 0.6 mg/mL and subcutaneously administered at a dose of 6 mg/kg.
# as §1, §2
# The effect of Compounds (IC) and (ID) on morphine analgesic tolerance was studied. The experiment was performed in the same manner as in Test Example 3. Compounds (IC) and (ID) were used at a dose of 10 mg/kg, respectively.
# [5] = Compound (IA) 10 mg/kg p.o. repeatedly administered alone
# [6] = repeated combination group: Compound (IA) 10 mg/kg p.o. 30 min before oxycodone 20 mg/kg p.o., 4 days
# [7] = compound 10 mg/kg p.o. repeatedly administered alone
# [8] = repeated combination group: compound 10 mg/kg p.o. 30 min before each morphine 6 mg/kg s.c., 7 days
compound,measurement,setting,value
CCCn1c(=O)c2c(nc(/C=C/c3ccc(OC)c(OC)c3)n2C)n(CCC)c1=O [Compound (IA)],Latency (sec) Pre value (before drug administration on last day),Male ddY mice [1]; [5],11.9 ± 1.2 s
same,ΔChange (Latency at each time point − Pre value) 0.5 h,Male ddY mice [1]; [5],-0.2 ± 1.7 s
same,ΔChange (Latency at each time point − Pre value) 1 h,Male ddY mice [1]; [5],-0.4 ± 2.2 s
same,ΔChange (Latency at each time point − Pre value) 2 h,Male ddY mice [1]; [5],-0.1 ± 2.2 s
same,Latency (sec) Pre value (before drug administration on last day),Male ddY mice [1]; [6],11.9 ± 0.7 s
same,ΔChange (Latency at each time point − Pre value) 0.5 h,Male ddY mice [1]; [6],13.5 ± 2.6 s
same,ΔChange (Latency at each time point − Pre value) 1 h,Male ddY mice [1]; [6],6.0 ± 1.6 s
same,ΔChange (Latency at each time point − Pre value) 2 h,Male ddY mice [1]; [6],2.2 ± 1.6 s
same,development of analgesic tolerance (response latency),"Male ddY mice [1]; Test Example 7, Compound (IA) 10 mg/kg p.o. 30 min before oxycodone 20 mg/kg p.o., 4 days",the development of analgesic tolerance was prevented
same,effect on the response latency,"Male ddY mice [1]; Test Example 7, Compound (IA) 10 mg/kg p.o. repeatedly administered alone",the effect on the response latency was not observed
same,number of fecal pellets,"Male ddY mice [2]; Compound (IA) 10 mg/kg p.o. 30 min before morphine 3 mg/kg s.c., 3 hours, vs morphine administration group",significantly increased
same,diarrhea,Male ddY mice [2]; combination: Compound (IA) 10 mg/kg p.o. and morphine 3 mg/kg s.c.,diarrhea was not induced
same,diarrhea,Male ddY mice [2]; only Compound (IA) 10 mg/kg p.o. administered,diarrhea was not induced
same,adenosine A2A receptor antagonistic activity,adenosine A2A receptor,potent and selective
same,development of analgesic tolerance (response latency),"Male ddY mice [3]; Test Example 1, FIG. 1, Compound (IA) 10 mg/kg p.o. 30 min before morphine 6 mg/kg s.c., repeated 7 days",the development of analgesic tolerance was prevented
same,effect on the response latency,"Male ddY mice [3]; Test Example 1, FIG. 1, Compound (IA) 10 mg/kg p.o. repeatedly administered alone",the effect on the response latency was not observed
CCn1c(=O)c2c(nc(/C=C/c3cc(OC)c(OC)c(OC)c3)n2C)n(CC)c1=O [Compound (IC)],ΔChange (Latency at each time point − Pre value) 0.5 h,Male ddY mice [4]; [7],1.0 ± 0.7 s
same,ΔChange (Latency at each time point − Pre value) 1 h,Male ddY mice [4]; [7],3.3 ± 1.2 s
same,ΔChange (Latency at each time point − Pre value) 2 h,Male ddY mice [4]; [7],1.7 ± 0.7 s
same,ΔChange (Latency at each time point − Pre value) 0.5 h,Male ddY mice [4]; [8],16.0 ± 1.8 s
same,ΔChange (Latency at each time point − Pre value) 1 h,Male ddY mice [4]; [8],5.1 ± 1.7 s
same,ΔChange (Latency at each time point − Pre value) 2 h,Male ddY mice [4]; [8],0.9 ± 1.3 s
same,development of analgesic tolerance (response latency),Male ddY mice [4]; 7 days,the development of analgesic tolerance was prevented
same,effect on the response latency,Male ddY mice [4]; [7],the effect on the response latency was not observed
COc1ccc(/C=C/c2nc3c(c(=O)n(C)c(=O)n3C)n2C)cc1OC [Compound (ID)],ΔChange (Latency at each time point − Pre value) 0.5 h,Male ddY mice [4]; [7],2.1 ± 0.8 s
same,ΔChange (Latency at each time point − Pre value) 1 h,Male ddY mice [4]; [7],2.3 ± 1.3 s
same,ΔChange (Latency at each time point − Pre value) 2 h,Male ddY mice [4]; [7],2.5 ± 0.9 s
same,ΔChange (Latency at each time point − Pre value) 0.5 h,Male ddY mice [4]; [8],14.3 ± 1.7 s
same,ΔChange (Latency at each time point − Pre value) 1 h,Male ddY mice [4]; [8],5.1 ± 1.3 s
same,ΔChange (Latency at each time point − Pre value) 2 h,Male ddY mice [4]; [8],-0.1 ± 1.4 s
same,development of analgesic tolerance (response latency),Male ddY mice [4]; 7 days,the development of analgesic tolerance was prevented
same,effect on the response latency,Male ddY mice [4]; [7],the effect on the response latency was not observed
"CN1CC[C@]23c4c5ccc(O)c4O[C@H]2[C@@H](O)C=C[C@H]3[C@H]1C5 [morphine, reference compound]",number of fecal pellets,"Male ddY mice [2]; morphine 3 mg/kg s.c., pellets collected 3 hours after administration, vs normal group",significantly decreased
same,ΔChange (Latency at each time point − Pre value) 0.5 h,Male ddY mice [3]; Table 1,21.9 ± 1.9 s
same,ΔChange (Latency at each time point − Pre value) 1 h,Male ddY mice [3]; Table 1,11.8 ± 1.1 s
same,ΔChange (Latency at each time point − Pre value) 2 h,Male ddY mice [3]; Table 1,2.9 ± 0.9 s
same,ΔChange (Latency at each time point − Pre value) 0.5 h,Male ddY mice [3]; Table 2,20.2 ± 1.9 ^ sec
same,ΔChange (Latency at each time point − Pre value) 1 h,Male ddY mice [3]; Table 2,6.3 ± 1.7 s
same,ΔChange (Latency at each time point − Pre value) 2 h,Male ddY mice [3]; Table 2,2.3 ± 0.5 s
same,ΔChange (Latency at each time point − Pre value) 0.5 h,Male ddY mice [3]; Table 3,19.5 ± 2.0 s
same,ΔChange (Latency at each time point − Pre value) 1 h,Male ddY mice [3]; Table 3,6.4 ± 1.5 s
same,ΔChange (Latency at each time point − Pre value) 2 h,Male ddY mice [3]; Table 3,-0.8 ± 1.5 s
same,ΔChange (Latency at each time point − Pre value) 0.5 h,Male ddY mice [3]; Table 4,16.8 ± 2.7 s
same,ΔChange (Latency at each time point − Pre value) 1 h,Male ddY mice [3]; Table 4,10.4 ± 2.2 s
same,ΔChange (Latency at each time point − Pre value) 2 h,Male ddY mice [3]; Table 4,8.8 ± 0.6 s
same,ΔChange (Latency at each time point − Pre value) 0.5 h,Male ddY mice [3]; Table 5,18.0 ± 2.2 s
same,ΔChange (Latency at each time point − Pre value) 1 h,Male ddY mice [3]; Table 5,6.8 ± 1.3 s
same,ΔChange (Latency at each time point − Pre value) 2 h,Male ddY mice [3]; Table 5,1.9 ± 1.0 s
same,development of analgesic tolerance (response latency),"Male ddY mice [3]; Test Example 1, FIG. 1, morphine 6 mg/kg s.c. repeatedly for 7 days vs single morphine administration group",the development of analgesic tolerance was observed
same,development of analgesic tolerance (response latency),"Male ddY mice [3]; Test Example 3, morphine 6 mg/kg s.c. repeatedly for 7 days vs single morphine administration group",the development of analgesic tolerance was observed
same,development of analgesic tolerance (response latency),"Male ddY mice [3]; Test Example 4, morphine 6 mg/kg s.c. repeatedly for 7 days vs single morphine administration group",the development of analgesic tolerance was observed
same,development of analgesic tolerance (response latency),"Male ddY mice [3]; Test Example 5, morphine 6 mg/kg s.c. repeatedly for 7 days vs single morphine administration group",the development of analgesic tolerance was observed
same,development of analgesic tolerance (response latency),"Male ddY mice [3]; Test Example 6, morphine 6 mg/kg s.c. repeatedly for 7 days vs single morphine administration group",the development of analgesic tolerance was observed
